# Laboratory results taken from US12403088B2, “Ophthalmic compositions and methods for reducing oxidative damage to an eye lens” (University of Louisville Research Foundation, Inc., priority 2015, dated 2025).
# System: excised porcine lenses
# Test: Protein oxidation (OxyBlot) in excised porcine lenses cultured under hyperoxic conditions mimicking post-vitrectomy oxygen levels
# Assay type: cell-based
# Method: To assess the ability of the antioxidant compositions including non-reducing sugars to reduce oxidative damage to an eye lens of a subject, trehalose, a non-reducing disaccharide, was applied to lenses being cultured under hyperoxic (high oxygen) conditions that mimic post-vitrectomy intravitreal oxygen levels. Briefly, six excised porcine lenses were cultured in M199 media with 4% porcine serum at 37° C. for 1 week to acclimate to culture conditions. Then, 3 lenses were exposed to media with 7.5% trehalose while three control lenses remained untreated. At regular intervals, incubated lenses were examined under a dissecting microscope against a background of black gridlines. The oxygen concentration was controlled to mimic post-vitrectomy conditions. After 10 days, each lens was analyzed for protein oxidation using the OxBlot Oxidized Protein Detection Kit (Chemicon, International, Billerica, MA) to quantify the ability of the gel application method to protect the lens.
# The method described above was used to compare the effect of a subject trehalose composition freely dispersed in the tissue culture media (FIG. 1, first bar) to a biogel composition that was described by Tezel et al. in WO2014081969A1 (“Compositions and methods for reducing oxidative damage”) and which includes trehalose within a polymer gel. […]
smiles,measurement,setting,value
"OC[C@H]1O[C@H](O[C@H]2O[C@H](CO)[C@@H](O)[C@H](O)[C@H]2O)[C@H](O)[C@@H](O)[C@@H]1O [trehalose, α,α-1,1-Trehalose]",amount of protein oxidation in the lens (in words),"administration of trehalose to the eye lens, ex vivo, FIG. 1",reduced an amount of protein oxidation in the lens
same,reduction in protein oxidation levels to,"trehalose composition freely dispersed in tissue culture media (7.5% trehalose), hyperoxic culture, 10 days, FIG. 1 bar 1",about 20%
